Measurements reported in US20220175749A1, “LANABECESTAT FOR WEIGHT LOSS” (ASTRAZENECA AB, priority 2019, published 2022).
Marks after values point to notes of the source that are not given here.

What was measured:
Type in all cases: in vivo, human
[1] = Phase 3 study of lanabecestat in mild AD dementia, 78-week placebo-controlled period: effect on weight; details: for Weight decrease ≥ 7%, (%): placebo 6.3; for mean weight change: completers at week 78, placebo −0.2 kg
Method: A Phase 3, multicenter, randomized, double-blind, global study of lanabecestat in patients with mild AD dementia that included a 78-week placebo-controlled period, for which results are provided below.
Lanabecestat was provided orally once daily for 78 weeks at 20 mg or 50 mg and compared to the results for once daily administration of placebo.
The key inclusion criteria for the study were as follows: • Population aged 55 to 85 years; • Mild AD: meet National Institute on Aging and the Alzheimer's Association (NIA-AA) criteria with a Clinical Dementia Rating Scale-Global Score (CDR-GS) of 0.5 or 1, with memory box score ≥0.5; • Mini-Mental State Examination (MMSE) score 20-26; • Study partner; • Amyloid positive • Cerebrospinal fluid; or • Florbetapir amyloid Positron Emission Tomography (PET); or • Historical amyloid PET.
(§1) The key exclusion criteria for the study were: • Unstable medical conditions or medications; • Magnetic resonance imaging (MRI): >5 microhemorrhages, significant cerebrovascular pathology, or other pathologies; • QT interval adjusted for heart rate using the Fridericia formula (QTcF) >470 ms; • History of vitiligo and/or current evidence of post-inflammatory hypo-pigmentation.
Comparing completers at week 78, the mean weight change was −0.2 kg for placebo (n=24), −1.4 kg for lanabecestat 20 mg (n=27), and −2.9 kg for lanabecestat 50 mg (n=20). The overall p-value and pairwise p-value compared to placebo was ≤0.05 (nominal p-value, not adjusted for multiplicity).

[2] = Phase 2/3 104-week placebo-controlled study of lanabecestat in early Alzheimer's Disease: effect on weight; details: for Weight decrease ≥ 7%, (%): placebo 12.7; for mean weight change: completers at week 104, placebo 0.0 kg
Excerpt: A Phase 2/3, multicenter, randomized, 104-week, double-blind, placebo-controlled, global study of lanabecestat in patients with early Alzheimer's Disease (AD), defined as the continuum of patients with mild cognitive impairment (MCI) due to AD and patients diagnosed with mild AD dementia.
Lanabecestat, i.e., the camsylate salt of (1r,1′R,4R)-4-methoxy-5″-methyl-6′-[5-(prop-1-yn-1-yl)pyridin-3-yl]-3′H-dispiro[cyclohexane-1,2′-indene-1′,2″-imidazol]-4″-amine
was provided orally once daily for 104 weeks at 20 mg or 50 mg and compared to the results for once daily administration of placebo.
The key inclusion criteria for the study were as follows: • Population aged 55 to 85 years old; • Mild AD: meet National Institute on Aging and the Alzheimer's Association (NIA-AA) criteria with a Clinical Dementia Rating Scale-Global Score (CDR-GS) of 0.5 or 1; • MCI: meet NIA-AA criteria with a CDR-GS of 0.5; • CDR memory box score ≥0.5; • Mini-Mental State Examination (MMSE)≥20; • Repeatable Battery for the Assessment of Neuropsychological Status Delayed Memory Index (RBANS DMI)≤85; • Study partner; • Amyloid positive • Cerebrospinal fluid; or • Florbetapir amyloid Positron Emission Tomography (PET); or • Historical amyloid PET.
as §1, with “were as follows:” for “were:”, “Resonance Imaging” for “resonance imaging”, “hypo-pigmentation or exposure to depigmenting agents.” for “hypo-pigmentation.”
Comparing completers at week 104, the mean weight change was for 0.0 kg for placebo (n=202), −0.8 kg for lanabecestat 20 mg (n=187), and −1.9 kg for lanabecestat 50 mg (n=178). The overall p-value and pairwise p-value compared to placebo was ≤0.05 (nominal p-value, not adjusted for multiplicity).

[3] = Combined analysis of the two studies of Examples 1 and 2: weight change from baseline and weight decrease over time; details: for mean (SD) kg change from baseline: 52 weeks
Method: A further analysis of the subjects in the two studies described in Examples 1 and 2 above was performed, for which results are provided below.
FIGS. 1-3 show weight change from baseline over the course of the 104 week studies. […] At 52 weeks, the mean (SD) kg change from baseline in the Lanabecestat 50 mg group versus placebo was −1.5 kg (4.4) vs +0.1 kg (3.4).
At 52 weeks, the mean (SD) kg change from baseline in the Lanabecestat 50 mg group versus placebo was −0.65 kg (3.4) vs +0.3 kg (3.3).
Table 10 provides data for the weight decrease over time for the population with a baseline BMI>25 kg/m^2 versus the overall population, showing that there is a greater percent decrease in weight in the higher BMI group versus the overall population.

[4] = week 26, all patients, L20 (20 mg), N=1080
[5] = week 26, all patients, L50 (50 mg), N=1047
[6] = week 26, patients with baseline BMI > 25, L20 (20 mg), N=532
[7] = week 26, patients with baseline BMI > 25, L50 (50 mg), N=494
[8] = week 52, all patients, L20 (20 mg), N=726
[9] = week 52, all patients, L50 (50 mg), N=716
[10] = week 52, patients with baseline BMI > 25, L20 (20 mg), N=348
[11] = week 52, patients with baseline BMI > 25, L50 (50 mg), N=348
[12] = week 78, all patients, L20 (20 mg), N=366
[13] = week 78, all patients, L50 (50 mg), N=347
[14] = week 78, patients with baseline BMI > 25, L20 (20 mg), N=170
[15] = week 78, patients with baseline BMI > 25, L50 (50 mg), N=161
[16] = week 104, all patients, L20 (20 mg), N=187
[17] = week 104, all patients, L50 (50 mg), N=178
[18] = week 104, patients with baseline BMI > 25, L20 (20 mg), N=89
[19] = week 104, patients with baseline BMI > 25, L50 (50 mg), N=77

CC#Cc1cncc(-c2ccc3c(c2)[C@@]2(N=C(C)C(N)=N2)[C@]2(CC[C@H](OC)CC2)C3)c1 [Lanabecestat, (1r,1′R,4R)-4-methoxy-5″-methyl-6′-[5-(prop-1-yn-1-yl)pyridin-3-yl]-3′H-dispiro[cyclohexane-1,2′-indene-1′,2″-imidazol]-4″-amine]
Weight decrease ≥ 7%, (%) ([1]; 20 mg, N=570): (9.5) % | Weight decrease ≥ 7%, (%) ([1]; 50 mg, N=545): (14.5)* % | mean weight change ([1]; lanabecestat 20 mg once daily oral, n=27): -1.4 kg | mean weight change ([1]; lanabecestat 50 mg once daily oral, n=20): -2.9 kg | Weight decrease ≥ 7%, (%) ([2]; 20 mg, N=728): (21.2)* % | Weight decrease ≥ 7%, (%) ([2]; 50 mg, N=723): (24.9)* % | mean weight change ([2]; lanabecestat 20 mg once daily oral, n=187): -0.8 kg | mean weight change ([2]; lanabecestat 50 mg once daily oral, n=178): -1.9 kg | weight loss of ≥5% and ≥10% versus placebo ([3]; 50 mg, at 2 years): statistically significant weight loss | mean (SD) kg change from baseline ([3]; baseline BMI>25 kg/m^2, 50 mg, SD 5.2, placebo −0.4 kg (3.6)): -2.5 kg | mean (SD) kg change from baseline ([3]; baseline BMI≤25 kg/m^2, 50 mg, SD 3.4, placebo +0.3 kg (3.3)): -0.65 kg | mean (SD) kg change from baseline ([3]; overall population, 50 mg, SD 4.4, placebo +0.1 kg (3.4)): -1.5 kg | Weight loss ≥5%, % of patients [3, 4]: (14%)*** | Weight loss ≥5%, n patients [3, 4]: 147 | Weight loss ≥10%, % of patients [3, 4]: 1% | Weight loss ≥10%, n patients [3, 4]: 15 | Weight loss ≥15%, % of patients [3, 4]: 0.3% | Weight loss ≥15%, n patients [3, 4]: 3 | Weight loss ≥5%, % of patients [3, 5]: (16%)*** | Weight loss ≥5%, n patients [3, 5]: 172 | Weight loss ≥10%, % of patients [3, 5]: (3%)** | Weight loss ≥10%, n patients [3, 5]: 28 | Weight loss ≥15%, % of patients [3, 5]: 0.5% | Weight loss ≥15%, n patients [3, 5]: 5 | Weight loss ≥5%, % of patients [3, 6]: (16%)*** | Weight loss ≥5%, n patients [3, 6]: 87 | Weight loss ≥10%, % of patients [3, 6]: 2% | Weight loss ≥10%, n patients [3, 6]: 11 | Weight loss ≥15%, % of patients [3, 6]: 0.6% | Weight loss ≥15%, n patients [3, 6]: 3 | Weight loss ≥5%, % of patients [3, 7]: (18%)*** | Weight loss ≥5%, n patients [3, 7]: 90 | Weight loss ≥10%, % of patients [3, 7]: 4% | Weight loss ≥10%, n patients [3, 7]: 20 | Weight loss ≥15%, % of patients [3, 7]: 1% | Weight loss ≥15%, n patients [3, 7]: 3 | Weight loss ≥5%, % of patients [3, 8]: (19%)*** | Weight loss ≥5%, n patients [3, 8]: 139 | Weight loss ≥10%, % of patients [3, 8]: 5% | Weight loss ≥10%, n patients [3, 8]: 35 | Weight loss ≥15%, % of patients [3, 8]: 1% | Weight loss ≥15%, n patients [3, 8]: 8 | Weight loss ≥5%, % of patients [3, 9]: (25%)*** | Weight loss ≥5%, n patients [3, 9]: 180 | Weight loss ≥10%, % of patients [3, 9]: (5%)** | Weight loss ≥10%, n patients [3, 9]: 39 | Weight loss ≥15%, % of patients [3, 9]: 1% | Weight loss ≥15%, n patients [3, 9]: 8 | Weight loss ≥5%, % of patients [3, 10]: (24%)*** | Weight loss ≥5%, n patients [3, 10]: 82 | Weight loss ≥10%, % of patients [3, 10]: 7% | Weight loss ≥10%, n patients [3, 10]: 26 | Weight loss ≥15%, % of patients [3, 10]: 2% | Weight loss ≥15%, n patients [3, 10]: 8 | Weight loss ≥5%, n patients [3, 11]: 104 | Weight loss ≥10%, % of patients [3, 11]: 7% | Weight loss ≥10%, n patients [3, 11]: 26 | Weight loss ≥15%, % of patients [3, 11]: 2% | Weight loss ≥15%, n patients [3, 11]: 6 | Weight loss ≥5%, % of patients [3, 12]: (23%)** | Weight loss ≥5%, n patients [3, 12]: 85 | Weight loss ≥10%, % of patients [3, 12]: 7% | Weight loss ≥10%, n patients [3, 12]: 26 | Weight loss ≥15%, % of patients [3, 12]: 2% | Weight loss ≥15%, n patients [3, 12]: 9 | Weight loss ≥5%, % of patients [3, 13]: (31%)*** | Weight loss ≥5%, n patients [3, 13]: 107 | Weight loss ≥10%, % of patients [3, 13]: (10%)*** | Weight loss ≥10%, n patients [3, 13]: 36 | Weight loss ≥15%, % of patients [3, 13]: 2% | Weight loss ≥15%, n patients [3, 13]: 7 | Weight loss ≥5%, % of patients [3, 14]: (31%)* | Weight loss ≥5%, n patients [3, 14]: 52 | Weight loss ≥10%, % of patients [3, 14]: 10% | Weight loss ≥10%, n patients [3, 14]: 17 | Weight loss ≥15%, % of patients [3, 14]: 5% | Weight loss ≥15%, n patients [3, 14]: 9 | Weight loss ≥5%, % of patients [3, 15]: (35%)** | Weight loss ≥5%, n patients [3, 15]: 57 | Weight loss ≥10%, % of patients [3, 15]: 12% | Weight loss ≥10%, n patients [3, 15]: 20 | Weight loss ≥15%, % of patients [3, 15]: 3% | Weight loss ≥15%, n patients [3, 15]: 5 | Weight loss ≥5%, % of patients [3, 16]: 26% | Weight loss ≥5%, n patients [3, 16]: 48 | Weight loss ≥10%, % of patients [3, 16]: 9% | Weight loss ≥10%, n patients [3, 16]: 16 | Weight loss ≥15%, % of patients [3, 16]: 2% | Weight loss ≥15%, n patients [3, 16]: 4 | Weight loss ≥5%, % of patients [3, 17]: (38%)*** | Weight loss ≥5%, n patients [3, 17]: 67 | Weight loss ≥10%, % of patients [3, 17]: (17%)*** | Weight loss ≥10%, n patients [3, 17]: 31 | Weight loss ≥15%, % of patients [3, 17]: 3% | Weight loss ≥15%, n patients [3, 17]: 6 | Weight loss ≥5%, % of patients [3, 18]: 30% | Weight loss ≥5%, n patients [3, 18]: 27 | Weight loss ≥10%, % of patients [3, 18]: 15% | Weight loss ≥10%, n patients [3, 18]: 13 | Weight loss ≥15%, % of patients [3, 18]: 4 (4%) | Weight loss ≥15%, n patients [3, 18]: 4 (4%) | Weight loss ≥5%, % of patients [3, 19]: (42%)** | Weight loss ≥5%, n patients [3, 19]: 32 | Weight loss ≥10%, % of patients [3, 19]: 19% | Weight loss ≥15%, % of patients [3, 19]: 4% | Weight loss ≥15%, n patients [3, 19]: 3
